Laboratory results from PubChem BioAssay (NCI).
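The compound was tested at five concentrations on cells cultured in 96-well plates, with a 48-hour exposure period. At the TGI there is no net growth.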

Key:
Experiment in all cases: NCI anticancer screen, dose series, 48 h
[1] = tested on: 786-0 renal
[2] = tested on: A549 NSCLC
[3] = tested on: ACHN renal
[4] = tested on: BT-549 breast
[5] = tested on: CAKI-1 renal
[6] = tested on: CCRF-CEM leukemia
[7] = tested on: COLO 205 colon
[8] = tested on: DU-145 prostate
[9] = tested on: EKVX NSCLC
[10] = tested on: HCC-2998 colon
[11] = tested on: HCT-116 colon
[12] = tested on: HCT-15 colon
[13] = tested on: HL-60(TB) leukemia
[14] = tested on: HOP-62 NSCLC
[15] = tested on: HS 578T breast
[16] = tested on: HT29 colon
[17] = tested on: K-562 leukemia
[18] = tested on: KM12 colon
[19] = tested on: M14 melanoma
[20] = tested on: MCF7 breast
[21] = tested on: MDA-MB-231 breast
[22] = tested on: MDA-MB-435
[23] = tested on: MDA-N
[24] = tested on: MOLT-4 leukemia
[25] = tested on: NCI-H23 lung
[26] = tested on: NCI-H460 lung
[27] = tested on: NCI-H522 lung
[28] = tested on: NCI/ADR-RES ovarian
[29] = tested on: OVCAR-3 ovarian
[30] = tested on: OVCAR-4 ovarian
[31] = tested on: OVCAR-8 ovarian
[32] = tested on: PC-3 prostate
[33] = tested on: RPMI-8226 leukemia
[34] = tested on: RXF 393 renal
[35] = tested on: SF-268 CNS
[36] = tested on: SF-295 CNS
[37] = tested on: SF-539 CNS
[38] = tested on: SK-MEL-28 melanoma
[39] = tested on: SK-MEL-5 melanoma
[40] = tested on: SK-OV-3 ovarian
[41] = tested on: SN12C renal
[42] = tested on: SNB-19 CNS
[43] = tested on: SNB-75 CNS
[44] = tested on: SR leukemia
[45] = tested on: SW-620 colon
[46] = tested on: T-47D breast
[47] = tested on: TK-10 renal
[48] = tested on: U251 CNS
[49] = tested on: UACC-257 melanoma
[50] = tested on: UACC-62 melanoma
[51] = tested on: UO-31 renal
[52] = tested on: A498 renal
[53] = tested on: HOP-92 NSCLC
[54] = tested on: IGROV1 ovarian
[55] = tested on: NCI-H226 lung
[56] = tested on: OVCAR-5 ovarian
[57] = tested on: SK-MEL-2 melanoma
[58] = tested on: LOX IMVI melanoma
[59] = tested on: MALME-3M melanoma

With `COC(=O)c1ccc(/C=C2\Cc3ccccc3C2=O)cc1` the TGI [1] was greater than 100 µM, the TGI [2] was greater than 100 µM and the TGI [3] was greater than 100 µM. For the same compound, the TGI [4] was greater than 100 µM, the TGI [5] was greater than 100 µM and the TGI [6] was greater than 100 µM. The TGI [7] was greater than 100 µM, the TGI [8] was greater than 100 µM and the TGI [9] was greater than 100 µM. It also gave a TGI [10] greater than 100 µM, a TGI [11] greater than 100 µM and a TGI [12] greater than 100 µM. The TGI [13] was greater than 100 µM, the TGI [14] was greater than 100 µM and the TGI [15] was greater than 100 µM. The TGI [16] was greater than 100 µM, the TGI [17] was greater than 100 µM and the TGI [18] was greater than 100 µM. It also gave a TGI [19] greater than 100 µM, a TGI [20] greater than 100 µM and a TGI [21] greater than 100 µM. For the same compound, the TGI [22] was greater than 100 µM, the TGI [23] was greater than 100 µM and the TGI [24] was greater than 100 µM. For the same compound, the TGI [25] was greater than 100 µM, the TGI [26] was greater than 100 µM and the TGI [27] was greater than 100 µM. For the same compound, the TGI [28] was greater than 100 µM, the TGI [29] was greater than 100 µM and the TGI [30] was greater than 100 µM. It also gave a TGI [31] greater than 100 µM, a TGI [32] greater than 100 µM and a TGI [33] greater than 100 µM. The TGI [34] was greater than 100 µM, the TGI [35] was greater than 100 µM and the TGI [36] was greater than 100 µM. It also gave a TGI [37] greater than 100 µM, a TGI [38] greater than 100 µM and a TGI [39] greater than 100 µM. The TGI [40] was greater than 100 µM, the TGI [41] was greater than 100 µM and the TGI [42] was greater than 100 µM. The TGI [43] was greater than 100 µM, the TGI [44] was greater than 100 µM and the TGI [45] was greater than 100 µM. For the same compound, the TGI [46] was greater than 100 µM, the TGI [47] was greater than 100 µM and the TGI [48] was greater than 100 µM. The TGI [49] was greater than 100 µM, the TGI [50] was greater than 100 µM and the TGI [51] was greater than 100 µM.

In the case of `CC1=CSC(O)(c2ccc(Cl)cc2)c2noc(=O)n21` (stereo not drawn), the TGI [1] is reported as greater than 100 µM, the TGI [52] is reported as greater than 100 µM and the TGI [2] is reported as greater than 100 µM. It also gave a TGI [3] greater than 100 µM, a TGI [4] greater than 100 µM and a TGI [5] greater than 100 µM. The TGI [7] was greater than 100 µM, the TGI [8] was greater than 100 µM and the TGI [9] was greater than 100 µM. It also gave a TGI [10] greater than 100 µM, a TGI [11] greater than 100 µM and a TGI [12] greater than 100 µM. The TGI [14] was greater than 100 µM, the TGI [53] was greater than 100 µM and the TGI [16] was greater than 100 µM. The TGI [54] was greater than 100 µM, the TGI [17] was greater than 100 µM and the TGI [18] was greater than 100 µM. It also gave a TGI [19] greater than 100 µM, a TGI [20] greater than 100 µM and a TGI [21] greater than 100 µM. For the same compound, the TGI [22] was greater than 100 µM, the TGI [23] was greater than 100 µM and the TGI [24] was greater than 100 µM. The TGI [55] was greater than 100 µM, the TGI [25] was greater than 100 µM and the TGI [26] was greater than 100 µM. For the same compound, the TGI [28] was greater than 100 µM, the TGI [29] was greater than 100 µM and the TGI [30] was greater than 100 µM. It also gave a TGI [56] greater than 100 µM, a TGI [31] greater than 100 µM and a TGI [32] greater than 100 µM. It also gave a TGI [33] greater than 100 µM, a TGI [34] greater than 100 µM and a TGI [35] greater than 100 µM. The TGI [36] was greater than 100 µM, the TGI [37] was greater than 100 µM and the TGI [57] was greater than 100 µM. The TGI [38] was greater than 100 µM, the TGI [39] was greater than 100 µM and the TGI [40] was greater than 100 µM. For the same compound, the TGI [41] was greater than 100 µM, the TGI [42] was greater than 100 µM and the TGI [43] was greater than 100 µM. For the same compound, the TGI [44] was greater than 100 µM, the TGI [45] was greater than 100 µM and the TGI [46] was greater than 100 µM. It also gave a TGI [47] greater than 100 µM, a TGI [49] of 60.3 µM and a TGI [50] greater than 100 µM. For the same compound, the TGI [51] was greater than 100 µM.

For `COc1cc(OC)cc(-n2c(N)c(-c3nc4ccccc4s3)c3ccc([N+](=O)[O-])cc3c2=O)c1`, the TGI [1] was greater than 100 µM, the TGI [52] was 76.7 µM and the TGI [3] was 41.7 µM. The TGI [4] was greater than 100 µM, the TGI [5] was greater than 100 µM and the TGI [6] was greater than 100 µM. The TGI [7] was greater than 100 µM, the TGI [8] was greater than 100 µM and the TGI [10] was greater than 100 µM. The TGI [11] was greater than 100 µM, the TGI [12] was greater than 100 µM and the TGI [13] was 13 µM. The TGI [53] was 15.8 µM, the TGI [15] was greater than 100 µM and the TGI [16] was greater than 100 µM. For the same compound, the TGI [17] was greater than 100 µM, the TGI [18] was greater than 100 µM and the TGI [58] was greater than 100 µM. The TGI [59] was greater than 100 µM, the TGI [20] was greater than 100 µM and the TGI [21] was greater than 100 µM. The TGI [22] was greater than 100 µM, the TGI [23] was greater than 100 µM and the TGI [55] was greater than 100 µM. It also gave a TGI [25] greater than 100 µM, a TGI [26] greater than 100 µM and a TGI [27] greater than 100 µM. The TGI [28] was greater than 100 µM, the TGI [30] was 78.9 µM and the TGI [31] was greater than 100 µM. The TGI [33] was greater than 100 µM, the TGI [35] was greater than 100 µM and the TGI [36] was greater than 100 µM. The TGI [37] was 37.5 µM, the TGI [38] was greater than 100 µM and the TGI [39] was greater than 100 µM. It also gave a TGI [40] greater than 100 µM, a TGI [41] of 82.8 µM and a TGI [42] greater than 100 µM. The TGI [43] was greater than 100 µM, the TGI [44] was 89.7 µM and the TGI [45] was greater than 100 µM. The TGI [46] was greater than 100 µM, the TGI [47] was 38.8 µM and the TGI [48] was greater than 100 µM. The TGI [49] was greater than 100 µM, the TGI [50] was greater than 100 µM and the TGI [51] was greater than 100 µM.

`CCOc1ncn(-c2ccc(NC(=S)Nc3cnccn3)cc2)n1` gave a TGI [1] greater than 10 µM, a TGI [2] greater than 10 µM and a TGI [3] greater than 10 µM. For the same compound, the TGI [4] was greater than 10 µM, the TGI [6] was greater than 10 µM and the TGI [8] was greater than 10 µM. It also gave a TGI [9] greater than 10 µM, a TGI [12] greater than 10 µM and a TGI [13] greater than 10 µM. The TGI [53] was greater than 10 µM, the TGI [15] was greater than 10 µM and the TGI [16] was greater than 10 µM. The TGI [54] was greater than 10 µM, the TGI [17] was greater than 10 µM and the TGI [18] was greater than 10 µM. It also gave a TGI [19] greater than 10 µM, a TGI [59] greater than 10 µM and a TGI [20] greater than 10 µM. It also gave a TGI [21] greater than 10 µM, a TGI [22] greater than 10 µM and a TGI [23] greater than 10 µM. It also gave a TGI [24] greater than 10 µM, a TGI [55] greater than 10 µM and a TGI [25] greater than 10 µM. It also gave a TGI [26] greater than 10 µM, a TGI [27] greater than 10 µM and a TGI [28] greater than 10 µM. It also gave a TGI [29] greater than 10 µM, a TGI [30] greater than 10 µM and a TGI [56] greater than 10 µM. For the same compound, the TGI [31] was greater than 10 µM, the TGI [34] was greater than 10 µM and the TGI [35] was greater than 10 µM. The TGI [36] was greater than 10 µM, the TGI [37] was greater than 10 µM and the TGI [57] was greater than 10 µM. It also gave a TGI [40] greater than 10 µM, a TGI [41] greater than 10 µM and a TGI [42] greater than 10 µM. For the same compound, the TGI [43] was greater than 10 µM, the TGI [44] was greater than 10 µM and the TGI [46] was greater than 10 µM. For the same compound, the TGI [47] was greater than 10 µM, the TGI [48] was greater than 10 µM and the TGI [49] was greater than 10 µM. It also gave a TGI [50] greater than 10 µM and a TGI [51] greater than 10 µM.
